Laboratory results as given in the NIST ThermoML archive (doi:10.1021/je0201323).

Experiment: xn = mol fraction of the nth substance listed
Conditions: for mass density: 101.3 kPa, Liquid, vibrating tube; for surface tension liquid-gas: Pendant drop shape

CN(C)C=O [dimethylformamide] + Cc1ccccc1
Conditions	mass density [kg/m3]	surface tension liquid-gas [mN/m]
278.15 K, x2 = 0	963	–
278.15 K, x2 = 0.1502	949.1	–
278.15 K, x2 = 0.3	935.7	–
278.15 K, x2 = 0.4492	923.1	–
278.15 K, x2 = 0.5998	911	–
278.15 K, x2 = 0.7548	898.9	–
283.15 K, x2 = 0	958.3	–
283.15 K, x2 = 0.1502	944.4	–
283.15 K, x2 = 0.3	931.1	–
283.15 K, x2 = 0.4492	918.6	–
283.15 K, x2 = 0.5998	906.5	–
283.15 K, x2 = 0.7548	894.5	–
287.81 K, x2 = 0	–	36.96
287.81 K, x2 = 0.1502	–	35.22
287.81 K, x2 = 0.3	–	33.42
287.81 K, x2 = 0.4492	–	32.15
287.81 K, x2 = 0.5998	–	31.2
287.81 K, x2 = 0.7548	–	30.17
288.15 K, x2 = 0	953.7	–
288.15 K, x2 = 0.1502	939.9	–
288.15 K, x2 = 0.3	926.6	–
288.15 K, x2 = 0.4492	914.1	–
288.15 K, x2 = 0.5998	902	–
288.15 K, x2 = 0.7548	890	–
293.15 K, x2 = 0	949.1	–
293.15 K, x2 = 0.1502	935.3	–
293.15 K, x2 = 0.3	922	–
293.15 K, x2 = 0.4492	909.5	–
293.15 K, x2 = 0.5998	897.5	–
293.15 K, x2 = 0.7548	885.5	–
297.82 K, x2 = 0	–	35.83
297.82 K, x2 = 0.1502	–	33.97
297.82 K, x2 = 0.3	–	32.5
297.82 K, x2 = 0.4492	–	31.04
297.82 K, x2 = 0.5998	–	30.04
297.82 K, x2 = 0.7548	–	29.17
298.15 K, x2 = 0	944.5	–
298.15 K, x2 = 0.1502	930.6	–
298.15 K, x2 = 0.3	917.4	–
298.15 K, x2 = 0.4492	905	–
298.15 K, x2 = 0.5998	892.9	–
298.15 K, x2 = 0.7548	880.9	–
303.15 K, x2 = 0	939.9	–
303.15 K, x2 = 0.1502	926.1	–
303.15 K, x2 = 0.3	912.9	–
303.15 K, x2 = 0.4492	900.4	–
303.15 K, x2 = 0.5998	888.4	–
303.15 K, x2 = 0.7548	876.4	–
307.86 K, x2 = 0	–	34.65
307.86 K, x2 = 0.1502	–	32.84
307.86 K, x2 = 0.3	–	31.2
307.86 K, x2 = 0.4492	–	29.86
307.86 K, x2 = 0.5998	–	28.98
307.86 K, x2 = 0.7548	–	28.06
308.15 K, x2 = 0	935.4	–
308.15 K, x2 = 0.1502	921.5	–
308.15 K, x2 = 0.3	908.3	–
308.15 K, x2 = 0.4492	895.9	–
308.15 K, x2 = 0.5998	883.8	–
308.15 K, x2 = 0.7548	871.8	–
313.15 K, x2 = 0	930.9	–
313.15 K, x2 = 0.1502	917	–
313.15 K, x2 = 0.3	903.8	–
313.15 K, x2 = 0.4492	891.3	–
313.15 K, x2 = 0.5998	879.2	–
313.15 K, x2 = 0.7548	867.2	–
317.86 K, x2 = 0	–	33.37
317.86 K, x2 = 0.1502	–	31.7
317.86 K, x2 = 0.3	–	30.21
317.86 K, x2 = 0.4492	–	28.77
317.86 K, x2 = 0.5998	–	27.61
317.86 K, x2 = 0.7548	–	26.85
318.15 K, x2 = 0	926.3	–
318.15 K, x2 = 0.1502	912.4	–
318.15 K, x2 = 0.3	899.2	–
318.15 K, x2 = 0.4492	886.7	–
318.15 K, x2 = 0.5998	874.6	–
318.15 K, x2 = 0.7548	862.5	–
323.15 K, x2 = 0	921.7	–
323.15 K, x2 = 0.1502	907.8	–
323.15 K, x2 = 0.3	894.6	–
323.15 K, x2 = 0.4492	882	–
323.15 K, x2 = 0.5998	869.9	–
323.15 K, x2 = 0.7548	857.9	–
327.88 K, x2 = 0	–	32.03
327.88 K, x2 = 0.1502	–	30.5
327.88 K, x2 = 0.3	–	29.04
327.88 K, x2 = 0.4492	–	27.62
327.88 K, x2 = 0.5998	–	26.59
327.88 K, x2 = 0.7548	–	25.7
328.15 K, x2 = 0	917.9	–
328.15 K, x2 = 0.1502	903.3	–
328.15 K, x2 = 0.3	890.1	–
328.15 K, x2 = 0.4492	877.5	–
328.15 K, x2 = 0.5998	865.3	–
328.15 K, x2 = 0.7548	853.2	–
333.15 K, x2 = 0	913.2	–
333.15 K, x2 = 0.1502	899	–
333.15 K, x2 = 0.3	885.7	–
333.15 K, x2 = 0.4492	873	–
333.15 K, x2 = 0.5998	860.7	–
333.15 K, x2 = 0.7548	848.5	–

Cc1ccccc1 [toluene] + CCCCCCC
Conditions	mass density [kg/m3]	surface tension liquid-gas [mN/m]
278.15 K, x2 = 0	880.3	–
278.15 K, x2 = 0.15	843.7	–
278.15 K, x2 = 0.299	811.3	–
278.15 K, x2 = 0.449	782	–
278.15 K, x2 = 0.595	756.4	–
278.15 K, x2 = 0.749	732.6	–
283.15 K, x2 = 0	875.9	–
283.15 K, x2 = 0.15	839.3	–
283.15 K, x2 = 0.299	807	–
283.15 K, x2 = 0.449	777.8	–
283.15 K, x2 = 0.595	752.2	–
283.15 K, x2 = 0.749	728.4	–
287.81 K, x2 = 0	–	28.93
287.81 K, x2 = 0.299	–	24.49
287.81 K, x2 = 0.449	–	23.38
287.81 K, x2 = 0.595	–	22.41
287.81 K, x2 = 0.749	–	21.58
288.15 K, x2 = 0	871.4	–
288.15 K, x2 = 0.15	834.9	–
288.15 K, x2 = 0.299	802.7	–
288.15 K, x2 = 0.449	773.5	–
288.15 K, x2 = 0.595	747.9	–
288.15 K, x2 = 0.749	724.2	–
293.15 K, x2 = 0	866.9	–
293.15 K, x2 = 0.15	830.5	–
293.15 K, x2 = 0.299	798.3	–
293.15 K, x2 = 0.449	769.1	–
293.15 K, x2 = 0.595	743.6	–
293.15 K, x2 = 0.749	719.9	–
297.82 K, x2 = 0	–	27.76
297.82 K, x2 = 0.15	–	25.16
297.82 K, x2 = 0.299	–	23.47
297.82 K, x2 = 0.449	–	22.17
297.82 K, x2 = 0.595	–	21.35
297.82 K, x2 = 0.749	–	20.56
298.15 K, x2 = 0	862.4	–
298.15 K, x2 = 0.15	826	–
298.15 K, x2 = 0.299	794.1	–
298.15 K, x2 = 0.449	764.7	–
298.15 K, x2 = 0.595	739.2	–
298.15 K, x2 = 0.749	715.6	–
303.15 K, x2 = 0	857.8	–
303.15 K, x2 = 0.15	821.5	–
303.15 K, x2 = 0.299	789.4	–
303.15 K, x2 = 0.449	760.3	–
303.15 K, x2 = 0.595	734.8	–
303.15 K, x2 = 0.749	711.2	–
307.86 K, x2 = 0	–	26.6
307.86 K, x2 = 0.15	–	24.08
307.86 K, x2 = 0.299	–	22.42
307.86 K, x2 = 0.449	–	21.23
307.86 K, x2 = 0.595	–	20.31
307.86 K, x2 = 0.749	–	19.62
308.15 K, x2 = 0	853.2	–
308.15 K, x2 = 0.15	817	–
308.15 K, x2 = 0.299	784.9	–
308.15 K, x2 = 0.449	755.8	–
308.15 K, x2 = 0.595	730.4	–
308.15 K, x2 = 0.749	706.8	–
313.15 K, x2 = 0	848.6	–
313.15 K, x2 = 0.15	812.4	–
313.15 K, x2 = 0.299	780.4	–
313.15 K, x2 = 0.449	751.3	–
313.15 K, x2 = 0.595	725.9	–
313.15 K, x2 = 0.749	702.4	–
317.86 K, x2 = 0	–	25.46
317.86 K, x2 = 0.15	–	23.03
317.86 K, x2 = 0.299	–	21.39
317.86 K, x2 = 0.449	–	20.28
317.86 K, x2 = 0.595	–	19.37
317.86 K, x2 = 0.749	–	18.62
318.15 K, x2 = 0	843.9	–
318.15 K, x2 = 0.15	807.8	–
318.15 K, x2 = 0.299	775.8	–
318.15 K, x2 = 0.449	746.8	–
318.15 K, x2 = 0.595	721.4	–
318.15 K, x2 = 0.749	697.9	–
323.15 K, x2 = 0	839.2	–
323.15 K, x2 = 0.15	803.1	–
323.15 K, x2 = 0.299	771.2	–
323.15 K, x2 = 0.449	742.2	–
323.15 K, x2 = 0.595	716.9	–
323.15 K, x2 = 0.749	693.4	–
327.88 K, x2 = 0	–	24.29
327.88 K, x2 = 0.15	–	22.05
327.88 K, x2 = 0.299	–	20.44
327.88 K, x2 = 0.449	–	19.31
327.88 K, x2 = 0.595	–	18.43
327.88 K, x2 = 0.749	–	17.66
328.15 K, x2 = 0	834.5	–
328.15 K, x2 = 0.15	798.5	–
328.15 K, x2 = 0.299	766.5	–
328.15 K, x2 = 0.449	737.6	–
328.15 K, x2 = 0.595	712.3	–
328.15 K, x2 = 0.749	688.8	–
333.15 K, x2 = 0	829.8	–
333.15 K, x2 = 0.15	793.8	–
333.15 K, x2 = 0.299	761.8	–
333.15 K, x2 = 0.449	733	–
333.15 K, x2 = 0.595	707.7	–
333.15 K, x2 = 0.749	684.2	–
